From patent US20240158446A1, “CYCLIC COMPOUND HAVING SELECTIVE INHIBITORY ACTION ON KRAS OVER HRAS AND NRAS” (CHUGAI SEIYAKU KABUSHIKI KAISHA, priority 2021, published 2024)

Legend:
[1] = biological target: GDP-bound NRAS wild-type protein (Homo sapiens, UniProt P01111); experiment: Binding to NRAS by surface plasmon resonance (SPR), Single Cycle Kinetics; settings: SPR, GDP-bound NRAS wild-type protein vs GDP-bound KRAS wild-type protein
[2] = biological target: GDP-bound HRAS wild-type protein (Homo sapiens, UniProt P01112); experiment: Binding to HRAS by surface plasmon resonance (SPR), Single Cycle Kinetics; settings: SPR, GDP-bound HRAS wild-type protein vs GDP-bound KRAS wild-type protein
Chain of GDP-bound HRAS wild-type protein (P01112 whole entry): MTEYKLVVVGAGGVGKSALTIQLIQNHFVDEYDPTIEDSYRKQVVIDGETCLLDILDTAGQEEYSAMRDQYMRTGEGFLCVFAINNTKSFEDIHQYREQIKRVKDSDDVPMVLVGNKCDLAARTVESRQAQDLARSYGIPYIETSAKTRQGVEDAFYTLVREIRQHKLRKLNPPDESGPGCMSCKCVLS

[3] = biological target: GDP-bound KRAS wild-type protein (Homo sapiens, UniProt P01116); experiment: Binding to KRAS by surface plasmon resonance (SPR), Single Cycle Kinetics; settings: SPR, Single Cycle Kinetics, GDP-bound KRAS wild-type protein; read-out: KRAS KD
Chain of GDP-bound KRAS wild-type protein (P01116 whole entry): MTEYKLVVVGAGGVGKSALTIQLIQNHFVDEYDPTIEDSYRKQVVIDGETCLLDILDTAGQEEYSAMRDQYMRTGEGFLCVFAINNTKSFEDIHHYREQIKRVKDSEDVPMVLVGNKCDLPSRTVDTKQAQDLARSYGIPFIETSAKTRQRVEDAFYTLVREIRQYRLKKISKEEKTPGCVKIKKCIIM

Chain of GDP-bound NRAS wild-type protein (P01111 whole entry): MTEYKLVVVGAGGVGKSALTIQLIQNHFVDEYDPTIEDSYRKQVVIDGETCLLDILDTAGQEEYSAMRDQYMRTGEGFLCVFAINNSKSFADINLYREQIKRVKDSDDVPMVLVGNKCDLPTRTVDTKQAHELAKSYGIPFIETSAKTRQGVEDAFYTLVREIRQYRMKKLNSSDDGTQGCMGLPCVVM

| SMILES | Kd [3] [nM] | NRAS/KRAS (ratio of KD value for NRAS to KD value for KRAS) [1] | HRAS/KRAS (ratio of KD value for HRAS to KD value for KRAS) [2] |
| --- | --- | --- | --- |
| CC[C@H](C)[C@@H]1NC(=O)[C@H](CC(C)C)N(C)C(=O)C[C@@H](C(=O)N2CCOCC2)N(CC)C(=O)[C@H](C2CCCC2)N(C)C(=O)C2(CCCC2)NC(=O)[C@@H]2CCCN2C(=O)[C@H](CCc2ccc(C(F)(F)F)c(Cl)c2)NC(=O)CN(C)C(=O)[C@H](Cc2ccc(F)cc2)N2CCCCC[C@@H](C2=O)N(C)C(=O)CN(C)C1=O [PP0970] | 2.2 | B (a compound having 3 or more and less than 10 is denoted as B) | B (a compound having 3 or more and less than 10 is denoted as B) |
| CCO[C@@H]1C[C@H]2C(=O)NC3(CCC3)C(=O)N(C)[C@@H](C3CCCC3)C(=O)N(CCC3CCCC3)[C@H](C(=O)N(C)C)CC(=O)N(C)[C@@H](CC(C)C)C(=O)N[C@@H]([C@@H](C)CC)C(=O)N(C)CC(=O)N(C)[C@H]3CCCCCN(C3=O)[C@@H](Cc3ccc(F)cc3)C(=O)N(C)CC(=O)N[C@@H](CCc3ccc(C(F)(F)F)c(Cl)c3)C(=O)N2C1 [PP0976] | 4.8 | B (a compound having 3 or more and less than 10 is denoted as B) | B (a compound having 3 or more and less than 10 is denoted as B) |
| CC[C@H](C)[C@@H]1NC(=O)[C@H](CC(C)C)N(C)C(=O)C[C@@H](C(=O)N(C)C)N(CCC2CCCC2)C(=O)[C@H](C2CCCC2)N(C)C(=O)C2(CCC2)NC(=O)[C@@H]2CC(F)(F)CN2C(=O)[C@H](CCc2ccc(C(F)(F)F)c(Cl)c2)NC(=O)CN(C)C(=O)[C@H](Cc2ccc(F)cc2)N2CCCCC[C@@H](C2=O)N(C)C(=O)CN(C)C1=O [PP0977] | 7.7 | B (a compound having 3 or more and less than 10 is denoted as B) | A (a compound having 10 or more and less than 20 is denoted as A) |
| CCO[C@@H]1C[C@H]2C(=O)NC3(CCC3)C(=O)N(C)[C@@H](C3CCCC3)C(=O)N(CC)[C@H](C(=O)N(C)C)CC(=O)N(C)[C@@H](CC)C(=O)N[C@@H]([C@@H](C)CC)C(=O)N(C)CC(=O)N(C)[C@H]3C/C=C\CCN(C3=O)[C@@H](Cc3ccc(C(F)(F)F)cc3)C(=O)N(C)CC(=O)N[C@@H](CCc3cc(F)c(C(F)(F)F)c(F)c3)C(=O)N2C1 [PP0980] | 0.88 | A (a compound having 10 or more and less than 20 is denoted as A) | B (a compound having 3 or more and less than 10 is denoted as B) |
| CCO[C@@H]1C[C@H]2C(=O)NC3(CCC3)C(=O)N(C)[C@@H](C3CCCC3)C(=O)N(CCC3CCCC3)[C@H](C(=O)N3CCOCC3)CC(=O)N(C)[C@@H](CC)C(=O)N[C@@H]([C@@H](C)CC)C(=O)N(C)CC(=O)N(C)[C@H]3C/C=C\CCN(C3=O)[C@@H](Cc3ccc(C(F)(F)F)cc3)C(=O)N(C)CC(=O)N[C@@H](CCc3cc(F)c(C(F)(F)F)c(F)c3)C(=O)N2C1 [PP0981] | 11 | AA (a compound having 20 or more is denoted as AA) | A (a compound having 10 or more and less than 20 is denoted as A) |
| CCO[C@@H]1C[C@H]2C(=O)NC3(CCC3)C(=O)N(C)[C@@H](C3CCCC3)C(=O)N(CCC3CCCC3)[C@H](C(=O)N(C)C)CC(=O)N(C)[C@@H](CC)C(=O)N[C@@H]([C@@H](C)CC)C(=O)N(C)CC(=O)N(C)[C@H]3C/C=C\CCN(C3=O)[C@@H](Cc3ccc(C(F)(F)F)cc3)C(=O)N(C)CC(=O)N[C@@H](CCc3cc(F)c(C(F)(F)F)c(F)c3)C(=O)N2C1 [PP0982] | 0.99 | AA (a compound having 20 or more is denoted as AA) | A (a compound having 10 or more and less than 20 is denoted as A) |

Molecules with a lower Kd [3], results first:

| Kd [3] [nM] | SMILES | NRAS/KRAS (ratio of KD value for NRAS to KD value for KRAS) [1] | HRAS/KRAS (ratio of KD value for HRAS to KD value for KRAS) [2] |
| --- | --- | --- | --- |
| 0.23 | CC[C@H](C)[C@@H]1NC(=O)[C@H](CC(C)C)N(C)C(=O)C[C@@H](C(=O)N2CCOCC2)N(C)C(=O)[C@H](C2CCCC2)N(C)C(=O)C2(CCCC2)NC(=O)[C@@H]2CC(F)(F)CN2C(=O)[C@H](CCc2ccc(C(F)(F)F)c(Cl)c2)NC(=O)CN(C)C(=O)[C@H](Cc2ccc(F)cc2)N2CCCCC[C@@H](C2=O)N(C)C(=O)CN(C)C1=O [PP0966] | B (a compound having 3 or more and less than 10 is denoted as B) | B (a compound having 3 or more and less than 10 is denoted as B) |
| 0.33 | CC[C@H](C)[C@@H]1NC(=O)[C@H](CC(C)C)N(C)C(=O)C[C@@H](C(=O)N2CCOCC2)N(C)C(=O)[C@H](C2CCCC2)N(C)C(=O)C2(CCC2)NC(=O)[C@@H]2CCCN2C(=O)[C@H](CCc2ccc(C(F)(F)F)c(Cl)c2)NC(=O)CN(C)C(=O)[C@H](Cc2ccc(F)cc2)N2CCCCC[C@@H](C2=O)N(C)C(=O)CN(C)C1=O [PP0967] | B (a compound having 3 or more and less than 10 is denoted as B) | B (a compound having 3 or more and less than 10 is denoted as B) |
| 0.085 | CC[C@H](C)[C@@H]1NC(=O)[C@H](CC(C)C)N(C)C(=O)C[C@@H](C(=O)N(C)C)N(C)C(=O)[C@H](C2CCCC2)N(C)C(=O)C2(CCC2)NC(=O)[C@@H]2CC(F)(F)CN2C(=O)[C@H](CCc2ccc(C(F)(F)F)c(Cl)c2)NC(=O)CN(C)C(=O)[C@H](Cc2ccc(F)cc2)N2CCCCC[C@@H](C2=O)N(C)C(=O)CN(C)C1=O [PP0973] | B (a compound having 3 or more and less than 10 is denoted as B) | B (a compound having 3 or more and less than 10 is denoted as B) |
| 0.088 | CCO[C@@H]1C[C@H]2C(=O)NC3(CCC3)C(=O)N(C)[C@@H](C3CCCC3)C(=O)N(C)[C@H](C(=O)N(C)C)CC(=O)N(C)[C@@H](CC)C(=O)N[C@@H]([C@@H](C)CC)C(=O)N(C)CC(=O)N(C)[C@H]3C/C=C\CCN(C3=O)[C@@H](Cc3ccc(C(F)(F)F)cc3)C(=O)N(C)CC(=O)N[C@@H](CCc3ccc(C(F)(F)F)c(Cl)c3)C(=O)N2C1 [PP0978, (2S,8S,12R,14S,20S,23S,27S,30S,36S,38Z)-8-[2-[3-chloro-4-(trifluoromethyl)phenyl]ethyl]-20-cyclopentyl-12-ethoxy-27-ethyl-N,N,4,19,22,26,32,35-octamethyl-30-[(1S)-1-methylpropyl]-3,6,9,15,18,21,25,28,31,34,42-undecaoxo-2-[[4-(trifluoromethyl)phenyl]methyl]spiro[1,4,7,10,16,19,22,26,29,32,35-undecazatricyclo[34.5.1.0^10,14]dotetracont-38-ene-17,1′-cyclobutane]-23-carboxamide] | A (a compound having 10 or more and less than 20 is denoted as A) | B (a compound having 3 or more and less than 10 is denoted as B) |
| 0.078 | CCO[C@@H]1C[C@H]2C(=O)NC3(CCC3)C(=O)N(C)[C@@H](C3CCCC3)C(=O)N(C)[C@H](C(=O)N(C)C)CC(=O)N(C)[C@@H](CC)C(=O)N[C@@H]([C@@H](C)CC)C(=O)NCC(=O)N(C)[C@H]3C/C=C\CCN(C3=O)[C@@H](Cc3ccc(C(F)(F)F)cc3)C(=O)N(C)CC(=O)N[C@@H](CCc3cc(F)c(C(F)(F)F)c(F)c3)C(=O)N2C1 [PP0983, (2S,8S,12R,14S,20S,23S,27S,30S,36S,38Z)-20-cyclopentyl-8-[2-[3,5-difluoro-4-(trifluoromethyl)phenyl]ethyl]-12-ethoxy-27-ethyl-N,N,4,19,22,26,35-heptamethyl-30-[(1S)-1-methylpropyl]-3,6,9,15,18,21,25,28,31,34,42-undecaoxo-2-[[4-(trifluoromethyl)phenyl]methyl]spiro[1,4,7,10,16,19,22,26,29,32,35-undecazatricyclo[34.5.1.0^10,14]dotetracont-38-ene-17,1′-cyclobutane]-23-carboxamide] | A (a compound having 10 or more and less than 20 is denoted as A) | A (a compound having 10 or more and less than 20 is denoted as A) |
| 0.28 | CCO[C@@H]1C[C@H]2C(=O)NC3(CCC3)C(=O)N(C)[C@@H](C3CCCC3)C(=O)N(C)[C@H](C(=O)N(C)C)CC(=O)N(C)[C@@H](CC)C(=O)N[C@@H]([C@@H](C)CC)C(=O)N3CC[C@H]3C(=O)N(C)[C@H]3C/C=C\CCN(C3=O)[C@@H](Cc3ccc(C(F)(F)F)cc3)C(=O)N(C)CC(=O)N[C@@H](CCc3cc(F)c(C(F)(F)F)c(F)c3)C(=O)N2C1 [PP0984] | A (a compound having 10 or more and less than 20 is denoted as A) | A (a compound having 10 or more and less than 20 is denoted as A) |
| 0.022 | CCO[C@@H]1C[C@H]2C(=O)NC3(CCC3)C(=O)N(C)[C@@H](C3CCCC3)C(=O)N(C)[C@H](C(=O)N(C)C)CC(=O)N(C)[C@@H](CC)C(=O)N[C@@H]([C@@H](C)CC)C(=O)N(C)CC(=O)N(C)[C@H]3CCCCN(C3=O)[C@@H](Cc3ccc(C(F)(F)F)cc3)C(=O)N(C)CC(=O)N[C@@H](CCc3cc(Cl)c(C(F)(F)F)c(Cl)c3)C(=O)N2C1 [PP0985] | C (A compound having a KD ratio of 0.1 or more and less than 3 is denoted as C) | C (A compound having a KD ratio of 0.1 or more and less than 3 is denoted as C) |
| 0.27 | CCO[C@@H]1C[C@H]2C(=O)NC3(CCC3)C(=O)N(C)[C@@H](C3CCCC3)C(=O)N(C)[C@H](C(=O)N(C)C)CC(=O)N(C)[C@@H](CC)C(=O)N[C@@H]([C@@H](C)CC)C(=O)N(C)CC(=O)N(C)[C@H]3CCCCN(C3=O)[C@@H](Cc3ccc(C(F)(F)F)cc3)C(=O)N(C)CC(=O)N[C@@H](CCc3ccc(OC(F)F)c(F)c3)C(=O)N2C1 [PP0986] | C (A compound having a KD ratio of 0.1 or more and less than 3 is denoted as C) | C (A compound having a KD ratio of 0.1 or more and less than 3 is denoted as C) |
